Data: PubChem BioAssay (NCI)
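The concentration for 50% growth inhibition is given as GI50. TGI: total growth inhibition.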

Columns and labels:
Assay in all cases: inhibition of tumour cell growth, NCI panel, 384-well format
SK-MEL-5 melanoma = tested on: SK-MEL-5 melanoma
UACC-62 melanoma = tested on: UACC-62 melanoma
MALME-3M melanoma = tested on: MALME-3M melanoma
K-562 leukemia = tested on: K-562 leukemia
SF-539 CNS = tested on: SF-539 CNS
MDA-MB-468 breast = tested on: MDA-MB-468 breast
T-47D breast = tested on: T-47D breast
SK-OV-3 ovarian = tested on: SK-OV-3 ovarian
UO-31 renal = tested on: UO-31 renal
NCI-H522 lung = tested on: NCI-H522 lung
ACHN renal = tested on: ACHN renal
BT-549 breast = tested on: BT-549 breast
OVCAR-4 ovarian = tested on: OVCAR-4 ovarian
UACC-257 melanoma = tested on: UACC-257 melanoma
NCI-H460 NSCLC = tested on: NCI-H460 NSCLC
A549 NSCLC = tested on: A549 NSCLC
SF-295 CNS = tested on: SF-295 CNS
OVCAR-8 ovarian = tested on: OVCAR-8 ovarian
SNB-75 CNS = tested on: SNB-75 CNS
MCF7 breast = tested on: MCF7 breast
RXF 393 renal = tested on: RXF 393 renal
HS 578T breast = tested on: HS 578T breast
U251 glioblastoma = tested on: U251 glioblastoma
SW-620 colon = tested on: SW-620 colon
CCRF-CEM leukemia = tested on: CCRF-CEM leukemia
NCI-H23 lung = tested on: NCI-H23 lung
SNB-19 CNS = tested on: SNB-19 CNS
DU-145 prostate = tested on: DU-145 prostate
HOP-62 NSCLC = tested on: HOP-62 NSCLC
RPMI-8226 leukemia = tested on: RPMI-8226 leukemia
OVCAR-5 ovarian = tested on: OVCAR-5 ovarian
OVCAR-3 ovarian = tested on: OVCAR-3 ovarian
786-0 renal = tested on: 786-0 renal
HCT-15 colon = tested on: HCT-15 colon
HL-60(TB) leukemia = tested on: HL-60(TB) leukemia
PC-3 prostate = tested on: PC-3 prostate
SF-268 CNS = tested on: SF-268 CNS
NCI/ADR-RES ovarian = tested on: NCI/ADR-RES ovarian
NCI-H322M lung = tested on: NCI-H322M lung
TK-10 renal = tested on: TK-10 renal
EKVX NSCLC = tested on: EKVX NSCLC
IGROV1 ovarian = tested on: IGROV1 ovarian
HOP-92 NSCLC = tested on: HOP-92 NSCLC
MDA-MB-435 melanoma = tested on: MDA-MB-435 melanoma
MOLT-4 leukemia = tested on: MOLT-4 leukemia
NCI-H226 lung = tested on: NCI-H226 lung
LOX IMVI melanoma = tested on: LOX IMVI melanoma
A498 renal = tested on: A498 renal
HT29 colon = tested on: HT29 colon
COLO 205 colon = tested on: COLO 205 colon
MDA-MB-231 breast = tested on: MDA-MB-231 breast
KM12 colon = tested on: KM12 colon
M14 melanoma = tested on: M14 melanoma
SR leukemia = tested on: SR leukemia
SN12C renal = tested on: SN12C renal
SK-MEL-28 melanoma = tested on: SK-MEL-28 melanoma
CAKI-1 renal = tested on: CAKI-1 renal
HCC-2998 colon = tested on: HCC-2998 colon

## CN(C)c1cc2c(cc1Sc1nc3c(N)nccc3n1CCNCC(C)(C)C)OCO2
SK-MEL-5 melanoma
  GI50: 79.8 nM
  TGI: 1450 nM
UACC-62 melanoma
  GI50: 226 nM
  TGI: 590 nM
MALME-3M melanoma
  GI50: 241 nM
  TGI: 548 nM
K-562 leukemia
  GI50: 199 nM
  TGI: 737 nM
SF-539 CNS
  GI50: 236 nM
  TGI: 541 nM
MDA-MB-468 breast
  GI50: 307 nM
  TGI: 507 nM
T-47D breast
  GI50: 350 nM
  TGI: 10500 nM
SK-OV-3 ovarian
  GI50: 231 nM
  TGI: 10800 nM
UO-31 renal
  GI50: 683 nM
  TGI: 19500 nM
NCI-H522 lung
  GI50: 191 nM
  TGI: 377 nM
ACHN renal
  GI50: 376 nM
  TGI: 13200 nM
BT-549 breast
  GI50: 118 nM
  TGI: 664 nM
OVCAR-4 ovarian
  GI50: 324 nM
  TGI: 883 nM
UACC-257 melanoma
  GI50: 507 nM
  TGI: 4140 nM
NCI-H460 NSCLC
  GI50: 138 nM
  TGI: 297 nM
A549 NSCLC
  GI50: 131 nM
  TGI: 12100 nM
SF-295 CNS
  GI50: 218 nM
  TGI: 499 nM
OVCAR-8 ovarian
  GI50: 174 nM
  TGI: 349 nM
SNB-75 CNS
  GI50: 273 nM
  TGI: 553 nM
MCF7 breast
  GI50: 89.5 nM
  TGI: 1680 nM
RXF 393 renal
  GI50: 127 nM
  TGI: 348 nM
HS 578T breast
  GI50: 261 nM
  TGI: 769 nM
U251 glioblastoma
  GI50: 352 nM
  TGI: 1420 nM
SW-620 colon
  GI50: 215 nM
  TGI: 715 nM
CCRF-CEM leukemia
  GI50: 118 nM
  TGI: 312 nM
NCI-H23 lung
  GI50: 134 nM
  TGI: 467 nM
SNB-19 CNS
  GI50: 423 nM
  TGI: 6840 nM
DU-145 prostate
  GI50: 228 nM
  TGI: 1130 nM
HOP-62 NSCLC
  GI50: 292 nM
  TGI: 934 nM
RPMI-8226 leukemia
  GI50: 135 nM
  TGI: 291 nM
OVCAR-5 ovarian
  GI50: 390 nM
  TGI: 9750 nM
OVCAR-3 ovarian
  GI50: 234 nM
  TGI: 631 nM
786-0 renal
  GI50: 280 nM
  TGI: 963 nM
HCT-15 colon
  GI50: 144 nM
  TGI: 8640 nM
HL-60(TB) leukemia
  GI50: 111 nM
  TGI: 241 nM
PC-3 prostate
  GI50: 229 nM
  TGI: 517 nM
SF-268 CNS
  GI50: 221 nM
  TGI: 11100 nM
NCI/ADR-RES ovarian
  GI50: 280 nM
  TGI: 625 nM
NCI-H322M lung
  GI50: 299 nM
  TGI: 14800 nM
TK-10 renal
  GI50: 400 nM
  TGI: 5550 nM
EKVX NSCLC
  GI50: 344 nM
  TGI: 11800 nM
IGROV1 ovarian
  GI50: 270 nM
  TGI: 742 nM
HOP-92 NSCLC
  GI50: 183 nM
  TGI: 503 nM
MDA-MB-435 melanoma
  GI50: 447 nM
  TGI: 15300 nM
MOLT-4 leukemia
  GI50: 58.9 nM
  TGI: 192 nM
NCI-H226 lung
  GI50: 387 nM
  TGI: 13200 nM
LOX IMVI melanoma
  GI50: 177 nM
  TGI: 330 nM
A498 renal
  GI50: 82.9 nM
  TGI: 11900 nM
HT29 colon
  GI50: 188 nM
  TGI: 2260 nM
COLO 205 colon
  GI50: 66.4 nM
  TGI: 325 nM
MDA-MB-231 breast
  GI50: 231 nM
  TGI: 608 nM
KM12 colon
  GI50: 171 nM
  TGI: 6350 nM
M14 melanoma
  GI50: 303 nM
  TGI: 3440 nM
SR leukemia
  GI50: 62.8 nM
  TGI: 197 nM
SN12C renal
  GI50: 221 nM
  TGI: 506 nM
SK-MEL-28 melanoma
  GI50: 327 nM
  TGI: 11900 nM
CAKI-1 renal
  GI50: 449 nM
  TGI: 15800 nM
HCC-2998 colon
  GI50: 183 nM
  TGI: 419 nM
